Measurements: patent US4721730A, “Adsorbent for β2 -microglobulin and immunoglobulin L-chain” (Kanegafuchi Kagaku Kogyo Kabushiki Kaisha, priority 1986, dated 1988)

System: β2-m and L-chain
Experiment: adsorption ability of immobilized compounds / carriers for β2-m and L-chain
Type: binding
Conditions: compound immobilized onto a carrier; in words
From the text: In order to find out a compound which has an effect on adsorbing β2 -m and L-chain, compounds having various log P are immobilized onto a carrier.
As the result of an investigation using carriers having various molucular weights of the exclusion limit, it is shown that the preferable range of pore size indicated by molecular weight of the exclusion limit is from 1×10^4 to 6×10^5. […] Therefore, the molecular weight of the exclusion limit of the carrier empolyed in the present invention is preferably from 1×10^4 to 6×10^5,more preferably from 2×10^4 to 3×10^5.

CCCCCCCCN [n-octylamine]
adsorption ability of β2-m and L-chain: extraordinarily increased
